Test results taken from ChEMBL document CHEMBL1156829 (Proc Natl Acad Sci U S A, 2008).

Assays:
Plasmodium falciparum [1] = assay: NOVARTIS: Inhibition of Plasmodium falciparum 3D7 (drug-susceptible) proliferation in erythrocyte-based infection assay; format: functional, organism-based; conditions: Plasmodium falciparum, 3D7
Plasmodium falciparum [2] = assay: NOVARTIS: Inhibition of Plasmodium falciparum W2 (drug-resistant) proliferation in erythrocyte-based infection assay; format: functional, organism-based; conditions: Plasmodium falciparum, W2; read-out: EC50
[3] = NOVARTIS: Cytotoxicity against human hepatocellular carcinoma cell line (Huh7); format: toxicity, cell-based, Huh-7; conditions: Huh7 cells (hepatocellular carcinoma cell line)

Molecule `c1ccc(-c2nn(-c3ccccc3)[n+](-c3ccccc3)n2)cc1` has an EC50 (Plasmodium falciparum [1]) of 296 nM, an EC50 (Plasmodium falciparum [2]) of 207 nM and a CC50 [3] greater than 100000 nM.
Molecule `C=CCn1c(=N)n(CC(O)c2ccc(Cl)c(Cl)c2)c2ccccc21` (configuration not stated) has an EC50 (Plasmodium falciparum [1]) of 140 nM, an EC50 (Plasmodium falciparum [2]) of 58.3 nM and a CC50 [3] of 14700 nM.
With `CCOC(=O)c1ccc(N(C(=O)Cc2c[nH]c3ccccc23)C(C(=O)NC2CCCCC2)c2cccnc2)cc1` (configuration not stated) the EC50 (Plasmodium falciparum [1]) was 280 nM, the EC50 (Plasmodium falciparum [2]) was 295 nM and the CC50 [3] was greater than 100000 nM.
In the case of `CC1(C)Oc2ccc3ccc(=O)oc3c2CC1=NNC(N)=S`, the EC50 (Plasmodium falciparum [1]) is reported as greater than 12500 nM, the EC50 (Plasmodium falciparum [2]) is reported as 4190 nM and the CC50 [3] is reported as greater than 100000 nM.
`O=[N+]([O-])c1ccc(N2CCCN(C(=S)Nc3ccccc3)CC2)nc1` showed an EC50 (Plasmodium falciparum [1]) of 91.5 nM, an EC50 (Plasmodium falciparum [2]) of 80.1 nM and a CC50 [3] greater than 100000 nM.
`COc1ccc(C[C@H](N)C(=O)N[C@H]2[C@@H](O)[C@H](n3cnc4c(N(C)C)ncnc43)O[C@@H]2CO)cc1` [PUROMYCIN] gave an EC50 (Plasmodium falciparum [1]) of 611 nM, an EC50 (Plasmodium falciparum [2]) of 328 nM and a CC50 [3] of 6630 nM.
With `CCOC(=O)c1c(NC(=O)CCC(=O)OC)sc2c1CC(C)(C)SC2` the EC50 (Plasmodium falciparum [1]) was greater than 650 nM, the EC50 (Plasmodium falciparum [2]) was greater than 1110 nM and the CC50 [3] was greater than 10000 nM.
For `Cc1ccc(-c2cn3ccccc3[n+]2CC(=O)c2ccc(Cl)cc2)cc1[N+](=O)[O-]`, the EC50 (Plasmodium falciparum [1]) was 369 nM, the EC50 (Plasmodium falciparum [2]) was 506 nM and the CC50 [3] was greater than 10000 nM.
Molecule `CN(C)c1ccc(C=Cc2nc(=O)c3ccccc3o2)cc1` has an EC50 (Plasmodium falciparum [1]) of 95.9 nM, an EC50 (Plasmodium falciparum [2]) of 96.1 nM and a CC50 [3] greater than 100000 nM.
`Cc1cc(N2CCCC2)nc2ccc(NC(=S)NCCCN3CCc4ccccc4C3)cc12` showed an EC50 (Plasmodium falciparum [1]) of 263 nM, an EC50 (Plasmodium falciparum [2]) of 924 nM and a CC50 [3] of 19100 nM.
Work on `CCCC(=O)N1c2ccc(OC)cc2-c2c(ssc2=S)C1(C)C` yielded an EC50 (Plasmodium falciparum [1]) of 791 nM, an EC50 (Plasmodium falciparum [2]) of 867 nM and a CC50 [3] greater than 100000 nM.
With `COc1cccc(OC)c1C(=O)Oc1cccc2ccc(C)nc12` the EC50 (Plasmodium falciparum [1]) was greater than 1250 nM, the EC50 (Plasmodium falciparum [2]) was 788 nM and the CC50 [3] was greater than 10000 nM.
In the case of `O=c1cc[nH]c2cc(N3CCCCCC3)c(F)cc12`, the EC50 (Plasmodium falciparum [1]) is reported as 1310 nM, the EC50 (Plasmodium falciparum [2]) is reported as 497 nM and the CC50 [3] is reported as greater than 92000 nM.
Work on `COc1cc(NC(C)CCCN(Cc2ccc(OC)c(OC)c2)C(=O)c2ccccc2C)c2ncccc2c1` (configuration not stated) yielded an EC50 (Plasmodium falciparum [1]) of 867 nM, an EC50 (Plasmodium falciparum [2]) of 831 nM and a CC50 [3] greater than 12200 nM.
`CN(C)S(=O)(=O)c1ccc(C(=O)Nc2nc3c(ccc4ccccc43)s2)cc1` gave an EC50 (Plasmodium falciparum [1]) greater than 9470 nM, an EC50 (Plasmodium falciparum [2]) of 1970 nM and a CC50 [3] greater than 100000 nM.
`CC1CNC(c2ccc(NC(=O)c3ccc(C(=O)Nc4ccc(C5=NC(C)CN5)cc4)c(N)c3)cc2)=N1` (configuration not stated) showed an EC50 (Plasmodium falciparum [1]) of 47 nM, an EC50 (Plasmodium falciparum [2]) of 22.2 nM and a CC50 [3] greater than 10000 nM.
For `CCOCCCNc1nc2cc(OC)c(OC)cc2c2nc(-c3ccccc3)nn12`, the EC50 (Plasmodium falciparum [1]) was 83.1 nM, the EC50 (Plasmodium falciparum [2]) was 56.3 nM and the CC50 [3] was greater than 100000 nM.
`O=C(Cc1cccs1)N1CCC(n2c(Cc3ccc(F)cc3)nc3cccnc32)CC1` showed an EC50 (Plasmodium falciparum [1]) greater than 12500 nM, an EC50 (Plasmodium falciparum [2]) of 827 nM and a CC50 [3] greater than 100000 nM.
In the case of `O=C(Nc1cccc(Cl)c1)c1cc2ccccc2cc1O`, the EC50 (Plasmodium falciparum [1]) is reported as 545 nM, the EC50 (Plasmodium falciparum [2]) is reported as 229 nM and the CC50 [3] is reported as 7890 nM.
`COc1ccc(C2C3=C(O)CC(C)(C)CC3=Nc3[nH]nc(C)c32)cc1` (configuration not stated) gave an EC50 (Plasmodium falciparum [1]) greater than 3320 nM, an EC50 (Plasmodium falciparum [2]) greater than 12500 nM and a CC50 [3] greater than 100000 nM.
Molecule `CCN1CCN(Cc2c(O)ccc3c(=O)c(Oc4cc(C)cc(C)c4)c(C(F)(F)F)oc23)CC1` has an EC50 (Plasmodium falciparum [1]) of 3630 nM, an EC50 (Plasmodium falciparum [2]) of 296 nM and a CC50 [3] greater than 100000 nM.
In the case of `CCOC(=O)c1[nH]c2ccc(C)cc2c1N=NN(C)C`, the EC50 (Plasmodium falciparum [1]) is reported as 181 nM, the EC50 (Plasmodium falciparum [2]) is reported as 115 nM and the CC50 [3] is reported as 26300 nM.
For `Cc1ccc(-c2cn3c([n+]2-c2ccc(C)cc2)CCCCC3)cc1`, the EC50 (Plasmodium falciparum [1]) was 999 nM, the EC50 (Plasmodium falciparum [2]) was 459 nM and the CC50 [3] was 10900 nM.
`O=C(Cc1ccsc1)N1CCOc2c(cc(-c3csc4ccccc34)cc2OCCc2ccccn2)C1` showed an EC50 (Plasmodium falciparum [1]) of 379 nM, an EC50 (Plasmodium falciparum [2]) of 223 nM and a CC50 [3] greater than 100000 nM.
`NC(=O)Oc1ccc(Cc2ccccc2)cc1` gave an EC50 (Plasmodium falciparum [1]) of 843 nM, an EC50 (Plasmodium falciparum [2]) of 738 nM and a CC50 [3] greater than 10000 nM.
`Cc1ccc(NC(=O)CN2CCN(c3ccccn3)CC2)cc1F` gave an EC50 (Plasmodium falciparum [1]) of 2080 nM, an EC50 (Plasmodium falciparum [2]) greater than 1540 nM and a CC50 [3] greater than 10000 nM.
With `C=CCOC(=O)C1=C(C)N=C2SCCC(=O)N2C1c1ccc(OC(=O)c2ccco2)cc1` (configuration not stated) the EC50 (Plasmodium falciparum [1]) was greater than 12400 nM, the EC50 (Plasmodium falciparum [2]) was greater than 11900 nM and the CC50 [3] was greater than 100000 nM.
In the case of `CSC(Cl)=C(NC(C)=O)[P+](c1ccccc1)(c1ccccc1)c1ccccc1`, the EC50 (Plasmodium falciparum [1]) is reported as 126 nM, the EC50 (Plasmodium falciparum [2]) is reported as 257 nM and the CC50 [3] is reported as greater than 100000 nM.
`O=C(NCCCCNC(=O)Nc1cccc(C2=NCCN2)c1)Nc1cccc(C2=NCCN2)c1` showed an EC50 (Plasmodium falciparum [1]) of 203 nM, an EC50 (Plasmodium falciparum [2]) of 67.2 nM and a CC50 [3] greater than 10000 nM.
Molecule `Cc1cc2c(cc1S(=O)(=O)N(C)C1CCCCC1)OCC(=O)N2` has an EC50 (Plasmodium falciparum [1]) greater than 1250 nM, an EC50 (Plasmodium falciparum [2]) greater than 569 nM and a CC50 [3] greater than 10000 nM.
With `COC(=O)C1=C(C)NC2=C(C(=O)CC(c3ccc(OC)cc3)C2)C1c1ccccc1F` (configuration not stated) the EC50 (Plasmodium falciparum [1]) was 231 nM, the EC50 (Plasmodium falciparum [2]) was 88.4 nM and the CC50 [3] was greater than 100000 nM.
`COc1ccc(C(=O)Nc2ccc3nsnc3c2)cc1OC` showed an EC50 (Plasmodium falciparum [1]) greater than 1250 nM, an EC50 (Plasmodium falciparum [2]) greater than 1250 nM and a CC50 [3] greater than 10000 nM.
Work on `CCCCNC(=O)c1ccc(OC2CCN(CC3CCCCC3)CC2)c(Cl)c1` yielded an EC50 (Plasmodium falciparum [1]) of 639 nM, an EC50 (Plasmodium falciparum [2]) of 270 nM and a CC50 [3] greater than 10000 nM.
`CCN(CC)CCN(Cc1cc2cc(OC)ccc2[nH]c1=O)C(=S)Nc1cccc(Cl)c1` gave an EC50 (Plasmodium falciparum [1]) of 1190 nM, an EC50 (Plasmodium falciparum [2]) of 2190 nM and a CC50 [3] of 23100 nM.
